In brackets after ≈: the same amount, converted by molar mass. Like-named read-outs stand apart in the source and are kept apart here.
What was measured:
Solubility = type: physicochemical; details: organic solvent or mixture
[1] = UV spectra measured in a UV spectrometer (Perkin-Elmer), path length one centimeter; type: physicochemical; details: ethanol, c=1 mg/100 ml
Description: The UV spectra were measured in a UV spectrometer from Perkin-Elmer at a path length of one centimeter.

[2] = 280-320 nm; cited from earlier work
[3] = cited from earlier work

| SMILES | E at λmax1 [1] | E at λmax2 [1] | λmax1 [1] [nm] | λmax2 [1] [nm] | also measured |
| --- | --- | --- | --- | --- | --- |
| CCCCC(CC)COc1c(OC)ccc(-c2nc3ccccc3[nH]2)c1OC (stereo not shown) [Example 2] | 0.51 | 0.45 | 297 | 308 | solubility (Solubility; isopropanol, read-out: Solubility in Isopropanol): 640 mg/mL (≈ 1670 mM); solubility (Solubility; miglyol, read-out: Solubility in Miglyol): 590 mg/mL (≈ 1540 mM); solubility (Solubility; paraffin, read-out: Solubility in Paraffin): 57 mg/mL (≈ 149 mM) |
| COc1ccc(-c2nc3ccccc3[nH]2)c(OC)c1OC [Example 2a, 2-(2',3',4'-Trimethoxy)phenylbenzimidazole] | 0.76 | 0.42 | 309 | 323 |  |
| CCCCC(CC)COc1ccc(OCC(CC)CCCC)c(-c2nc3ccccc3[nH]2)c1 (stereo not shown) [Example 1, 2-2',5'-Di(2-ethylhexyloxy)phenyl!benzimidazole] | 0.34 | 0.30 | 303 | 328 |  |
| Cc1ccc(C=C2C(=O)C3(C)CCC2C3(C)C)cc1 (stereo not shown) [EUSOLEX® 6300] |  |  |  |  | filter quality in the UVB range [2]: good filters |
| COc1ccc(C(=O)CC(=O)c2ccc(C(C)(C)C)cc2)cc1 [PARSOL® 1789] |  |  |  |  | stability when exposed to UV irradiation [3]: do not have an unlimited stability |
| O=S(=O)(O)c1ccc2[nH]c(-c3ccccc3)nc2c1 [EUSOLEX® 232] |  |  |  |  | filter quality in the UVB range [2]: good filters |
| CC(C)c1ccc(C(=O)CC(=O)c2ccccc2)cc1 [EUSOLEX® 8020] |  |  |  |  | stability when exposed to UV irradiation [3]: do not have an unlimited stability |
